Among the data in the Deep4Chem optical property database are emission maximum values, retold here.

The nature of the data set: solvent given as SMILES.

“And” between values parts separate entries of the source, which are not always exact repeats. Identical values can stand only once.

For `CCOC(=O)COc1ccc(/C=C/C2=C3c4ccccc4C(c4ccc[nH]4)=[N+]3[B-](F)(F)n3ccc(C)c32)cc1`, the emission maximum amounted to 625 nm (in C1CCOC1); 617 nm (in CC#N); 630 nm (in CCCCCC); 624 nm (in CO); 637 nm (in Cc1ccccc1); 631 nm (in ClCCl).
With `CC(C)(C)c1ccc2c3c(c4ccc(C(C)(C)C)cc4c2c1)=[N+]1C(=C(c2ccccc2)c2cc4c5ccc(C(C)(C)C)cc5c5cc(C(C)(C)C)ccc5c4n2[B-]1(F)F)C=3`, the emission maximum runs as follows: (in C1CCCCC1) 709 nm; (in C1CCOC1) 713 nm; (in CC#N) 712 nm; (in Cc1ccccc1) 713 nm; (in ClCCl) 716 nm.
Turning to `N#Cc1c(-n2c3ccccc3c3ccccc32)nc(-n2c3ccccc3c3ccccc32)c(C#N)c1-c1ccccc1`, the emission maximum (in c1cc(-c2cccc(-n3c4ccccc4c4ccccc43)c2)cc(-n2c3ccccc3c3ccccc32)c1) stood at 475 nm.
For the setting “in Cc1ccccc1”, `COc1ccc(C2=[N+]3C(=Nc4c(-c5cc(OC)c(OC)c(OC)c5)cc(-c5ccc(OC)cc5)n4[B-]3(F)F)C(c3cc(OC)c(OC)c(OC)c3)=C2)cc1` had an emission maximum of 724 nm.
As for `CC1(C)CC(/C=C/c2ccc(-n3cccn3)cc2)=CC(=C(C#N)C#N)C1`, the emission maximum runs as follows: (in C1CCOC1) 529 nm; (in CC#N) 538 nm; (in CCO) 532 nm; (in CCOC(C)=O) 526 nm; (in ClCCl) 528 nm; (in c1ccccc1) 511 nm.
On to `CCCCN1c2ccccc2B(c2ccccc2C(F)(F)F)c2ccccc21`, for which the emission maximum (in ClCCl) is listed as 401 nm.
`Cc1cccc(C2=Cc3c4ccccc4cc[n+]3[B-](F)(F)O2)c1` yielded an emission maximum (in ClC(Cl)Cl) of 464.8 nm.
Turning to `COC(=O)c1cc(=O)n(Cc2ccccc2)c2cc(-c3ccc(OC)cc3)sc12`, the emission maximum runs as follows: (in CC#N) 477 nm; (in ClCCl) 474 nm.
`Cc1cc(O)c(-c2[nH]c(=O)n3c2-c2ccccc2C3=O)cc1Cl`: the emission maximum reads like this: (in CC#N) 479 nm; (in CO) 496 nm; (in ClCCl) 478 nm.
Consider `CN(C)c1cc(-c2ccc(C#Cc3ccccc3)cc2)cc2ccccc12`, for which the emission maximum was 500.89 nm (in CC#N), 471.6 nm (in CCO) and 470 nm (in ClCCl).
With `COc1cc2c(cc1/C=C/C(=C(C#N)C#N)c1ccccc1)c1ccccc1n2C`, the emission maximum is 568 nm (in C1CCOC1); 589 nm (in CC#N); 575 nm (in CCO); 549 nm and 548 nm (in CCOC(C)=O); 573 nm (in CN(C)C=O); 575 nm (in CO). Further, the emission maximum came to 581 nm (in CS(C)=O), 566 nm (in Cc1ccccc1), 554 nm (in ClC(Cl)Cl) and 560 nm (in ClCCl).
On to `CCOC(=O)c1c(C(=O)OC)c(-c2cc3cc(OC)ccc3oc2=O)nn1-c1ccccc1`, for which the emission maximum (in ClCCl) is recorded as 451 nm.
